Results reported in ChEMBL document CHEMBL1158398, “New cyclopentane derivatives as inhibitors of steroid metabolizing enzymes AKR1C1 and AKR1C3” (Eur J Med Chem, 2009).
Activity calls are given as the source filed them. No cut-off for these calls is given here.

How the values were obtained:
[1] = target: T1, Aldo-keto reductase family 1 member C1 (Homo sapiens) (UniProt Q04828); experiment: Inhibition of human recombinant GST-tagged AKR1C1 expressed in Escherichia coli BL21 at 100 uM
T1 sequence (whole entry): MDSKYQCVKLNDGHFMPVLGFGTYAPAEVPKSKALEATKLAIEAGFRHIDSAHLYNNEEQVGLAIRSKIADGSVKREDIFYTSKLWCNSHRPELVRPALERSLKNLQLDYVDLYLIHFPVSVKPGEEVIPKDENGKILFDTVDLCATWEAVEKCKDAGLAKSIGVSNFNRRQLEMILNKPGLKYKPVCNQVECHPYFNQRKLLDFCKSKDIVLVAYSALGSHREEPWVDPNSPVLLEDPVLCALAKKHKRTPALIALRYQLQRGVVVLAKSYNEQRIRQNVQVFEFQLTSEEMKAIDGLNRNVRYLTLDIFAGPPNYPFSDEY

[2] = target: T2, Aldo-keto reductase family 1 member C3 (Homo sapiens) (UniProt P42330); experiment: Inhibition of human recombinant GST-tagged AKR1C3 expressed in Escherichia coli BL21 at 100 uM
T2 sequence (whole entry): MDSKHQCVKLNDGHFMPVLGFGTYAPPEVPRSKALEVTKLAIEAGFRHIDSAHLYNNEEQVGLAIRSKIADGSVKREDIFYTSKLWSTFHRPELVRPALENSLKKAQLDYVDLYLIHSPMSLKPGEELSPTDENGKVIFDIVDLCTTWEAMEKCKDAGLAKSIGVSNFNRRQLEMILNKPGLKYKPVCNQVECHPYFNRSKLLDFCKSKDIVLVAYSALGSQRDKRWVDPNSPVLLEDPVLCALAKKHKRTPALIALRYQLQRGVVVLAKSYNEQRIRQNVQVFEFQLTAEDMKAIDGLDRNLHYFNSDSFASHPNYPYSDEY

[3] = target: T1, Aldo-keto reductase family 1 member C1 (Homo sapiens); experiment: Inhibition of human recombinant GST-tagged AKR1C1 expressed in Escherichia coli BL21 at 50 uM
[4] = Solubility of the compound; format: physicochemical
[5] = target: T2, Aldo-keto reductase family 1 member C3 (Homo sapiens); experiment: Inhibition of human recombinant GST-tagged AKR1C3 expressed in Escherichia coli BL21 at 50 uM
[6] = target: T3, Aldo-keto reductase family 1 member C1 (Homo sapiens, UniProt Q04828); experiment: Inhibition of human recombinant GST-tagged AKR1C1 expressed in Escherichia coli BL21
T3 sequence (Q04828 whole entry): T1 sequence (whole entry)

[7] = target: T4, Aldo-keto reductase family 1 member C3 (Homo sapiens, UniProt P42330); experiment: Inhibition of human recombinant GST-tagged AKR1C3 expressed in Escherichia coli BL21
T4 sequence (P42330 whole entry): T2 sequence (whole entry)

[8] = target: T1, Aldo-keto reductase family 1 member C1 (Homo sapiens); experiment: Competitive inhibition of human recombinant GST-tagged AKR1C1 expressed in Escherichia coli BL21 at 36.2 uM by Lineweaver-Burke plot analysis
[9] = target: T1, Aldo-keto reductase family 1 member C1 (Homo sapiens); experiment: Competitive inhibition of human recombinant GST-tagged AKR1C1 expressed in Escherichia coli BL21 at 72.5 uM by Lineweaver-Burke plot analysis
[10] = target: T1, Aldo-keto reductase family 1 member C1 (Homo sapiens); experiment: Competitive inhibition of human recombinant GST-tagged AKR1C1 expressed in Escherichia coli BL21 at 17.4 uM by Lineweaver-Burke plot analysis

Row | SMILES | inhibition [1] [%] | inhibition [2] | other results
1 | Cc1ccc(S(=O)(=O)N2C3CCCC32)cc1 (stereo unspecified) | 2.1 | 2.7% | 
2 | Cc1ccc(S(=O)(=O)N[C@@H]2CCC[C@H]2C#N)cc1 (relative stereo) | 15.9 | inactive | 
3 | Cc1ccc(S(=O)(=O)N[C@@H]2CCC[C@H]2C(N)=O)cc1 (relative stereo) | 12.9 | inactive | 
4 | Cc1ccc(S(=O)(=O)N[C@@H]2CCC[C@H]2C(=O)O)cc1 (relative stereo) | 26.1 | inactive | 
5 | OC1CCCC1(Cc1ccccc1)Cc1ccccc1 (stereo unspecified) |  |  | inhibition [3]: 15.9%; solubility [4]: Insoluble; inhibition [5]: 67.3%
6 | O=C1CCC/C1=C\c1ccc(Cl)cc1 | 77.8 | 88.8% | IC50 [6]: 35 µM; Ki [6]: 17.2 µM; IC50 [7]: 36.7 µM; Ki [7]: 33.4 µM; Activity [8]: Active; Activity [9]: Active; Activity [10]: Active
7 | O=C(O)C1(c2ccccc2)CCCC1 | 53.5 | 5.8% | IC50 [6]: 72.9 µM; Ki [6]: 35.8 µM
8 | COC1CCC/C1=C\c1ccc(Cl)cc1 (stereo unspecified) | 40.1 | 87.4% | IC50 [7]: 17.8 µM; Ki [7]: 16.2 µM
9 | OC1C(Cc2ccccc2)CCC1Cc1ccccc1 (stereo unspecified) |  |  | inhibition [3]: 11.5%; solubility [4]: Insoluble; inhibition [5]: 46.6%
10 | CCOC1CCC/C1=C\c1ccc(Cl)cc1 (stereo unspecified) | 52.9 | 83.9% | IC50 [6]: 62.1 µM; Ki [6]: 30.5 µM; IC50 [7]: 22.5 µM; Ki [7]: 20.5 µM
11 | Cc1ccc(S(=O)(=O)N[C@@H]2CCC[C@H]2Br)cc1 (relative stereo) | 20.3 | 9.2% | 

More lines, main results first:

Row | inhibition [1] [%] | inhibition [2] | SMILES | other results
12 | 55.4 | 52.7% | O=C(O)C1CCC(c2ccccc2)C1 (stereo unspecified) | IC50 [6]: 98.6 µM; Ki [6]: 48.5 µM; IC50 [7]: 76.6 µM; Ki [7]: 69.6 µM
13 | 13.8 | inactive | O[C@@H]1CCC[C@H]1Cc1ccccc1 (relative stereo) | 
14 | 9.7 | inactive | O[C@H]1CCC[C@H]1Cc1ccccc1 (relative stereo) | 
15 | 14.7 | inactive | O[C@@H]1CCC[C@H]1Nc1ccccc1 (relative stereo) | 
